Measured values from US8318184B2, “MGLU2 agonists” (Eli Lilly and Company, priority 2009, dated 2012).

Tests used:
human mGlu2 receptor = molecular target: T1, human mGlu2 receptor (Homo sapiens, UniProt Q14416); assay: Human mGlu2 Agonist FLIPR Assay; type: cell-based; conditions: hmGlu2 FLIPR assay, AV-12 cells, relative EC50
T1 construct: expressed in transfected cells; co-transfected with rat EAAT1 and Galpha15
Description: AV-12 cell lines, derived from Syrian Hamster fibroblasts and stably expressing the human mGlu2 receptor and co-transfected with the rat glutamate transporter EAAT 1 (Excitatory Amino Acid Transporter 1) and the Gα15 subunit, are used for these studies. The expression of Gα15 allows Gi-coupled receptors to signal through the phospholipase C pathway, resulting in the ability to measure receptor activation by a fluorometric calcium response assay. […]
Intracellular calcium levels are monitored before and after the addition of compounds using a Fluorometric Imaging Plate Reader (FLIPR, Molecular Devices). […] Results are analyzed using Prism v4.03 (GraphPad Software). […] After taking an initial 5-sec fluorescent read on the FLIPR instrument, a compound of the present invention is added to the cell plate (50 μL per well). […] The compound effect is measured as maximal minus minimal peak heights in relative fluorescent units (RFUs) corrected for basal fluorescence measured in the absence of glutamate. […] Agonist effects are quantified as percent stimulation induced by compound alone relative to the maximal glutamate response. All data are calculated as relative EC50 values using a four-parameter logistic curve fitting program (ActivityBase v5.3.1.22).

ICR(CD-1) mice = assay: Reversal of Phencyclidine (PCP)-Induced Hyperlocomotor Activity in Mice; type: in vivo, mouse; conditions: i.p.
Description: This assay for Reversal of Phencyclidine (PCP)-Induced Hyperlocomotor Activity in Mice is run substantially as the Reversal of Phencyclidine (PCP)-Induced Hyperlocomotor Activity in Rats assay provided above, using mice instead of rats and with the changes noted below.
Motor activity is monitored by placing individual male, ICR(CD-1), (Harlan, Indianapolis, Ind.) mice in transparent, plastic shoe-box cages of the dimensions 45×25×20 cm, with 0.5 cm depth of wood chips as bedding, and plastic lid on top of the cage. Motor monitors (Kinder Scientific) consist of a rectangular rack of 12 photobeams arranged in an 8×4 formation, (or a high density grouping of 22 in a 15×7 pattern) at a height of 2.5 cm. The shoe box cage is placed inside of these racks, with the racks on a 3 foot high tabletop in an isolated room. A compound of the present invention is dosed (intraperitoneal route, non-prodrug) usually within a range of 0.3-30 mg/kg; though higher doses may be used, 30 minutes prior to a 7.5 mg/kg challenge dose of phencyclidine (PCP). On the test day, mice are placed in the test cage and allowed to acclimate for 45 minutes prior to PCP challenge; mice are monitored for an additional 60 minutes following PCP administration.
Power analyses have determined that 7-8 mice per group are needed to have appropriate statistical power for detecting treatment differences (power=0.8).

[1] = both, human, pH 7.4
Procedure: Liver S9 fractions are obtained from Xenotech LLC (Lenexa, Mo.). The lot is from a pool of two donors. The liver S9 fraction is prepared and diluted using a homogenization buffer consisting of 50 mM Tris, pH 7.4 at 4° C. and 150 mM potassium chloride without EDTA. Prodrug compounds are incubated in the liver homogenate for 2 hours at 37° C., after which the concentration of compound is determined by LC/MS/MS. Hydrolysis of Clopidogrel to Clopidogrel Carboxylic Acid is utilized as an assay positive control.
A mobile phase gradient is utilized starting mobile phase ratio A/B of 99.9/0.1 and finishing at 1/99.

T1 sequence (Q14416 19-872): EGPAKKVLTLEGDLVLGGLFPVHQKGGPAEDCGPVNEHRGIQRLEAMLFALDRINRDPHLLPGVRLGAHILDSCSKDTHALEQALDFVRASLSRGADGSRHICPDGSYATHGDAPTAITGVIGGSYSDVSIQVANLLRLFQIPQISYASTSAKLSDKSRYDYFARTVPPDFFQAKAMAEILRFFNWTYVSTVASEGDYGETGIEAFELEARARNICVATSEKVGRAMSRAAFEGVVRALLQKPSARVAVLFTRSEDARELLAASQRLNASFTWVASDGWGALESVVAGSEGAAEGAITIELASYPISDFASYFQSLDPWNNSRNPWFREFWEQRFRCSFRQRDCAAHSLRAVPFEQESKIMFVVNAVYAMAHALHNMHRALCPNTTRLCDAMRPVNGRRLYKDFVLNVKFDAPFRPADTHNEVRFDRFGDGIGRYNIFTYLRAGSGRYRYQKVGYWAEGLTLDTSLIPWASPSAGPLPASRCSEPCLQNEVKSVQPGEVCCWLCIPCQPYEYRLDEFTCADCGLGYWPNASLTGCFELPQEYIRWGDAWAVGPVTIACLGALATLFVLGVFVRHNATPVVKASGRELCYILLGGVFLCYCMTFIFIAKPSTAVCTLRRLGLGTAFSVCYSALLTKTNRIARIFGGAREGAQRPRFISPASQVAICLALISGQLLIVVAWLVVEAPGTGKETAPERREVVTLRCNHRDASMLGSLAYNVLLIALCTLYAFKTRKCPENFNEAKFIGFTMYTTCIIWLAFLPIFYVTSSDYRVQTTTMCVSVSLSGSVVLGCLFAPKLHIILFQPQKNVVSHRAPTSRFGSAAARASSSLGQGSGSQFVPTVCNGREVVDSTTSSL

SMILES | EC50 (human mGlu2 receptor) [µM] | inhibition of PCP evoked ambulations (ICR(CD-1) mice; multiple dose experiment, 10 mg/kg dose) [%] | inhibition of PCP evoked ambulations (ICR(CD-1) mice; multiple dose experiment, 100 mg/kg dose) [%] | inhibition of PCP evoked ambulations (ICR(CD-1) mice; single dose experiment of 10 mg/kg) [%] | Hydrolysis of Clopidogrel to Clopidogrel Carboxylic Acid [1] [%]
N[C@]1(C(=O)O)C[C@H](Sc2ccccc2)[C@@H]2[C@@H](C(=O)O)[C@@H]21 (racemic) [1SR,2RS,4SR,5SR,6SR-2-amino-4-(phenylthio)-bicyclo[3.1.0]hexane-2,6-dicarboxylic acid] | > 25 | 5±10 | 19±8 | 18±11 | 
COC(=O)[C@H](c1ccccc1Cl)N1CCc2sccc2C1 [Clopidogrel] |  |  |  |  | 73.0
